In patent EP1391197B1, “Process for preparation of compositions with a high content in avarol and their use” (KliniPharm GmbH, priority 2002, dated 2004):

Biological target: T1, 5-Lipoxygenase (Homo sapiens, UniProt P09917)
T1 construct: Granulozyten freiwilliger Spender; endogenous in cells; host or cells: granulocytes of volunteer donors
T1 sequence (P09917 1-674): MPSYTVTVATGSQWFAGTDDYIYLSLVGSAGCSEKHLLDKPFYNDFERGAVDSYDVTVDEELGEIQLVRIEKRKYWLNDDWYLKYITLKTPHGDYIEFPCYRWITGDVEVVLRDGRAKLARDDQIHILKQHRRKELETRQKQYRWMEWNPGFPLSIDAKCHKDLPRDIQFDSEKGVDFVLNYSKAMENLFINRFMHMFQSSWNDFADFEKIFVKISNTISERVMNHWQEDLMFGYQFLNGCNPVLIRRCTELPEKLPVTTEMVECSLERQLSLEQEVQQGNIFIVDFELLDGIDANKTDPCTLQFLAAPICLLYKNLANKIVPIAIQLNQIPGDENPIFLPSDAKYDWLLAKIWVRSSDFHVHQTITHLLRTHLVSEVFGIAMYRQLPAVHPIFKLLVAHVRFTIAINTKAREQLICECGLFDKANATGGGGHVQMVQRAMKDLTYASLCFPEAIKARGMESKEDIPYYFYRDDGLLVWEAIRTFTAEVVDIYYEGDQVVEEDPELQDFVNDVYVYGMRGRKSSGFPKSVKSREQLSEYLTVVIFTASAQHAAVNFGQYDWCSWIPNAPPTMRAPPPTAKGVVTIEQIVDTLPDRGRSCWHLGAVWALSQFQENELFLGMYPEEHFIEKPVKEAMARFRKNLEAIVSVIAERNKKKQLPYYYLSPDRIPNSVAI
Experiment: 5-lipoxygenase test in granulocytes (HPLC of 5-lipoxygenase products)
Type: cell-based
Conditions: granulocytes of volunteer donors, arachidonic acid and calcium ionophore, 37°C, 10 min, pH 7,4; read-out: IC50- Wert (Bildung von Biotransformationsprodukten der 5-Lipoxygenase)
Procedure: Granulozyten freiwilliger Spender [5-10 x 10^6 / ml] wurden in gepufferter physiologischer Kochsalzlösung [pH 7,4] mit Arachidonsäure [40µmol] und Calciumionophor [10µmol] und steigenden Konzentrationen [10nMol bis 10µMol] der Prüfsubstanzen, Avarol bzw. einer Avarol - Zusammensetzung gemäß Beispiel 3, bei 37°C 10 Minuten lang inkubiert. Anschließend wurden die Reaktion durch Zugabe von 1ml Methanol beendet, die Proben zentrifugiert und die Konzentration an Biotransformations-Produkten der 5-Lipoxygenase im Überstand per HPLC im UV bei 280 und 235nm analysiert. Avarol und die neue Zusammensetzung mit hohem Avarolgehalt, der Dysidea avara-Nativextrakt, hemmten die Bildung von Biotransformationsprodukten der 5-Lipoxygenase. Die IC50- Werte unterschieden sich aber auffällig deutlich. Während für Avarol ein IC50- Wert von 1,3 µM ermittelt wurde, der sich mit Literaturangaben deckt, hemmte die neue Zusammensetzung die Bildung von Produkten der 5-Lipoxygenase bereits mit einem IC50- Wert von 58 nM und war damit überraschend stärker wirksam als Avarol.

IC50: 1.3 µM
Compound: CC1=CCC[C@H]2[C@](C)(Cc3cc(O)ccc3O)[C@@H](C)CC[C@]12C [Avarol]
